Source: ChEMBL document CHEMBL1687718, “Selection and characterization of hepatitis C virus replicons dually resistant to the polymerase and protease inhibitors HCV-796 and boceprevir (SCH 503034)” (Antimicrob Agents Chemother, 2009)

Tests used:
Hepatitis C virus [1] = experiment: Antiviral activity against Hepatitis C virus genotype 1b Con1 infected in human HuH7 cells assessed as GAPDH RNA or 18S rRNA level after 3 days selected with 40 nM HCV-796 and 800 nM boceprevir by qRT-PCR analysis relative to control; type: functional, organism-based, Hepacivirus hominis, Huh-7
Hepatitis C virus [2] = experiment: Antiviral activity against Hepatitis C virus genotype 1b Con1 infected in human HuH7 cells assessed as GAPDH RNA or 18S rRNA level after 3 days selected with 40 nM HCV-796 and 800 nM boceprevir by qRT-PCR analysis; type: functional, organism-based, Hepacivirus hominis; conditions: Con1, Huh-7, 72 h
Hepatitis C virus [3] = experiment: Antiviral activity against Hepatitis C virus genotype 1b Con1 infected in human HuH7 cells assessed as GAPDH RNA or 18S rRNA level after 3 days by qRT-PCR analysis; type: functional, organism-based, Hepacivirus hominis; conditions: Con1, Huh-7, 72 h
Hepatitis C virus [4] = experiment: Antiviral activity against Hepatitis C virus genotype 1b Con1 harboring C316Y and C445F mutations mutant infected in human HuH7.5 cells after 72 hrs by gaussia luciferase reporter assay relative to control; type: functional, Hepacivirus hominis, Huh-7
Hepatitis C virus [5] = experiment: Antiviral activity against Hepatitis C virus genotype 1b Con1 harboring V170A and C316Y mutations mutant infected in human HuH7.5 cells after 72 hrs by gaussia luciferase reporter assay relative to control; type: functional, Hepacivirus hominis, Huh-7
Hepatitis C virus [6] = experiment: Antiviral activity against Hepatitis C virus genotype 1b Con1 harboring NS5B C445F mutant infected in human HuH7.5 cells after 72 hrs by gaussia luciferase reporter assay relative to control; type: functional, Hepacivirus hominis, Huh-7
Hepatitis C virus [7] = experiment: Antiviral activity against Hepatitis C virus genotype 1b Con1 harboring NS5B I424V mutant infected in human HuH7.5 cells after 72 hrs by gaussia luciferase reporter assay relative to control; type: functional, Hepacivirus hominis, Huh-7
Hepatitis C virus [8] = experiment: Antiviral activity against Hepatitis C virus genotype 1b Con1 harboring NS5B C316Y mutant infected in human HuH7.5 cells after 72 hrs by gaussia luciferase reporter assay relative to control; type: functional, Hepacivirus hominis, Huh-7
Hepatitis C virus [9] = experiment: Antiviral activity against Hepatitis C virus genotype 1b Con1 harboring NS3 K583T mutant infected in human HuH7.5 cells after 72 hrs by gaussia luciferase reporter assay relative to control; type: functional, Hepacivirus hominis, Huh-7
Hepatitis C virus [10] = experiment: Antiviral activity against Hepatitis C virus genotype 1b Con1 harboring NS3 G282S mutant infected in human HuH7.5 cells after 72 hrs by gaussia luciferase reporter assay relative to control; type: functional, Hepacivirus hominis, Huh-7
Hepatitis C virus [11] = experiment: Antiviral activity against Hepatitis C virus genotype 1b Con1 harboring NS3 E176G mutant infected in human HuH7.5 cells after 72 hrs by gaussia luciferase reporter assay relative to control; type: functional, Hepacivirus hominis, Huh-7
Hepatitis C virus [12] = experiment: Antiviral activity against Hepatitis C virus genotype 1b Con1 harboring NS3 V170A mutant infected in human HuH7.5 cells after 72 hrs by gaussia luciferase reporter assay relative to control; type: functional, Hepacivirus hominis, Huh-7
Hepatitis C virus [13] = experiment: Antiviral activity against Hepatitis C virus genotype 1b Con1 harboring NS3 V158M mutant infected in human HuH7.5 cells after 72 hrs by gaussia luciferase reporter assay relative to control; type: functional, Hepacivirus hominis, Huh-7
Hepatitis C virus [14] = experiment: Antiviral activity against Hepatitis C virus genotype 1b Con1 infected in human HuH7.5 cells after 72 hrs by gaussia luciferase reporter assay; type: functional, organism-based, Hepacivirus hominis; conditions: Con1, Huh-7, 72 h
Hepatitis C virus [15] = experiment: Antiviral activity against Hepatitis C virus genotype 1b Con1 infected in human HuH7 cells assessed as GAPDH RNA or 18S rRNA level after 3 days selected with […] and 400 nM boceprevir by qRT-PCR analysis relative to control; type: functional, Hepacivirus hominis, Huh-7
Hepatitis C virus [16] = experiment: Antiviral activity against Hepatitis C virus genotype 1b Con1 infected in human HuH7 cells assessed as GAPDH RNA or 18S rRNA level after 3 days selected with […] and 400 nM boceprevir by qRT-PCR analysis; type: functional, organism-based, Hepacivirus hominis; conditions: Con1, Huh-7, 72 h
Hepatitis C virus [17] = experiment: Antiviral activity against Hepatitis C virus genotype 1b Con1 harboring NS3 V158M mutant infected in human HuH7.5 cells after 72 hrs by gaussia luciferase reporter assay; type: functional, organism-based, Hepacivirus hominis; conditions: Con1, Huh-7, 72 h
Hepatitis C virus [18] = experiment: Antiviral activity against Hepatitis C virus genotype 1b Con1 harboring NS3 V170A mutant infected in human HuH7.5 cells after 72 hrs by gaussia luciferase reporter assay; type: functional, organism-based, Hepacivirus hominis; conditions: Con1, Huh-7, 72 h
Hepatitis C virus [19] = experiment: Antiviral activity against Hepatitis C virus genotype 1b Con1 harboring NS3 E176G mutant infected in human HuH7.5 cells after 72 hrs by gaussia luciferase reporter assay; type: functional, organism-based, Hepacivirus hominis; conditions: Con1, Huh-7, 72 h
Hepatitis C virus [20] = experiment: Antiviral activity against Hepatitis C virus genotype 1b Con1 harboring NS3 G282S mutant infected in human HuH7.5 cells after 72 hrs by gaussia luciferase reporter assay; type: functional, organism-based, Hepacivirus hominis; conditions: Con1, Huh-7, 72 h
Hepatitis C virus [21] = experiment: Antiviral activity against Hepatitis C virus genotype 1b Con1 harboring NS3 K583T mutant infected in human HuH7.5 cells after 72 hrs by gaussia luciferase reporter assay; type: functional, organism-based, Hepacivirus hominis; conditions: Con1, Huh-7, 72 h
Hepatitis C virus [22] = experiment: Antiviral activity against Hepatitis C virus genotype 1b Con1 harboring NS5B C316Y mutant infected in human HuH7.5 cells after 72 hrs by gaussia luciferase reporter assay; type: functional, organism-based, Hepacivirus hominis; conditions: Con1, Huh-7, 72 h
Hepatitis C virus [23] = experiment: Antiviral activity against Hepatitis C virus genotype 1b Con1 harboring NS5B I424V mutant infected in human HuH7.5 cells after 72 hrs by gaussia luciferase reporter assay; type: functional, organism-based, Hepacivirus hominis; conditions: Con1, Huh-7, 72 h
Hepatitis C virus [24] = experiment: Antiviral activity against Hepatitis C virus genotype 1b Con1 harboring NS5B C445F mutant infected in human HuH7.5 cells after 72 hrs by gaussia luciferase reporter assay; type: functional, organism-based, Hepacivirus hominis; conditions: Con1, Huh-7, 72 h
Hepatitis C virus [25] = experiment: Antiviral activity against Hepatitis C virus genotype 1b Con1 harboring V170A and C316Y mutations mutant infected in human HuH7.5 cells after 72 hrs by gaussia luciferase reporter assay; type: functional, organism-based, Hepacivirus hominis; conditions: Con1, Huh-7, 72 h
Hepatitis C virus [26] = experiment: Antiviral activity against Hepatitis C virus genotype 1b Con1 harboring C316Y and C445F mutations mutant infected in human HuH7.5 cells after 72 hrs by gaussia luciferase reporter assay; type: functional, organism-based, Hepacivirus hominis; conditions: Con1, Huh-7, 72 h

CC(=O)c1cc(F)c(Cl)cc1NCC(=O)Nc1ccccc1C(=O)O
Ratio IC50 (Hepatitis C virus [1]): >15 | EC50 (Hepatitis C virus [2]): > 20000 nM | EC50 (Hepatitis C virus [3]): 1310 nM

CC(=O)c1cc(F)c(Br)cc1NCC(=O)Nc1ccccc1C(=O)O
EC50 (Hepatitis C virus [1]; Hepatitis C virus, Con1, Huh-7, 72 h): > 30 nM | EC50 (Hepatitis C virus [2]): > 15000 nM | EC50 (Hepatitis C virus [3]): 499 nM

CCC[C@]1(CC(=O)O)OCCc2c1[nH]c1c(C)ccc(C#N)c21
Ratio IC50 (Hepatitis C virus [1]): 2 | EC50 (Hepatitis C virus [2]): 7840 nM

C[C@@]1(O)[C@H](O)[C@@H](CO)O[C@H]1n1ccc(N)nc1=O
Ratio IC50 (Hepatitis C virus [1]): 1 | EC50 (Hepatitis C virus [2]): 1620 nM | EC50 (Hepatitis C virus [3]): 1140 nM

CO[C@H]1/C=C\C=C(/C)C(=O)NC2=CC(=O)C(NCCN(C)C)=C(C[C@@H](C)C[C@H](OC)[C@H](O)[C@@H](C)/C=C(\C)[C@@H]1OC(N)=O)C2=O [ALVESPIMYCIN]
Ratio IC50 (Hepatitis C virus [1]): 3 | EC50 (Hepatitis C virus [2]): 3.1 nM | EC50 (Hepatitis C virus [3]): 1.2 nM

CC(C)(C)NC(=O)N[C@H](C(=O)N1C[C@H]2[C@@H]([C@H]1C(=O)NC(CC1CCC1)C(=O)C(N)=O)C2(C)C)C(C)(C)C (some centres undefined) [BOCEPREVIR]
Ratio IC50 (Hepatitis C virus [4]): 1 | Ratio IC50 (Hepatitis C virus [5]): 7 | Ratio IC50 (Hepatitis C virus [6]): 1 | Ratio IC50 (Hepatitis C virus [7]): 1 | Ratio IC50 (Hepatitis C virus [8]): 1 | Ratio IC50 (Hepatitis C virus [9]): 1 | Ratio IC50 (Hepatitis C virus [10]): 3 | Ratio IC50 (Hepatitis C virus [11]): 4 | Ratio IC50 (Hepatitis C virus [12]): 5 | Ratio IC50 (Hepatitis C virus [13]): 1 | EC50 (Hepatitis C virus [14]): 608 nM | Ratio IC50 (Hepatitis C virus [1]): 10 | EC50 (Hepatitis C virus [2]): 1580 nM | Ratio IC50 (Hepatitis C virus [15]): 8 | EC50 (Hepatitis C virus [3]): 165 nM | EC50 (Hepatitis C virus [16]): 1330 nM | EC50 (Hepatitis C virus [17]): 377 nM | EC50 (Hepatitis C virus [18]): 3170 nM | EC50 (Hepatitis C virus [19]): 2150 nM | EC50 (Hepatitis C virus [20]): 1940 nM | EC50 (Hepatitis C virus [21]): 738 nM | EC50 (Hepatitis C virus [22]): 781 nM | EC50 (Hepatitis C virus [23]): 647 nM | EC50 (Hepatitis C virus [24]): 795 nM | EC50 (Hepatitis C virus [25]): 4360 nM | EC50 (Hepatitis C virus [26]): 821 nM

COC1=C2C[C@@H](C)C[C@H](OC)[C@H](O)[C@@H](C)/C=C(\C)[C@H](OC(N)=O)[C@@H](OC)/C=C\C=C(/C)C(=O)NC(=CC1=O)C2=O [GELDANAMYCIN]
Ratio IC50 (Hepatitis C virus [1]): 5 | EC50 (Hepatitis C virus [2]): 1.2 nM | EC50 (Hepatitis C virus [3]): 0.25 nM

CNC(=O)c1c(-c2ccc(F)cc2)oc2cc(N(CCO)S(C)(=O)=O)c(C3CC3)cc12 [NESBUVIR]
Ratio IC50 (Hepatitis C virus [4]): 1834 | Ratio IC50 (Hepatitis C virus [5]): 95 | Ratio IC50 (Hepatitis C virus [6]): 8 | Ratio IC50 (Hepatitis C virus [7]): 1 | Ratio IC50 (Hepatitis C virus [8]): 138 | Ratio IC50 (Hepatitis C virus [9]): 1 | Ratio IC50 (Hepatitis C virus [10]): 2 | Ratio IC50 (Hepatitis C virus [11]): 3 | Ratio IC50 (Hepatitis C virus [12]): 1 | Ratio IC50 (Hepatitis C virus [13]): 1 | EC50 (Hepatitis C virus [14]): 14 nM | Ratio IC50 (Hepatitis C virus [1]): 1403 | EC50 (Hepatitis C virus [2]): 3370 nM | Ratio IC50 (Hepatitis C virus [15]): 1025 | EC50 (Hepatitis C virus [3]): 2.4 nM | EC50 (Hepatitis C virus [16]): 2460 nM | EC50 (Hepatitis C virus [17]): 9 nM | EC50 (Hepatitis C virus [18]): 13 nM | EC50 (Hepatitis C virus [19]): 38 nM | EC50 (Hepatitis C virus [20]): 22 nM | EC50 (Hepatitis C virus [21]): 15 nM | EC50 (Hepatitis C virus [22]): 1940 nM | EC50 (Hepatitis C virus [23]): 13 nM | EC50 (Hepatitis C virus [24]): 114 nM | EC50 (Hepatitis C virus [25]): 1340 nM | EC50 (Hepatitis C virus [26]): 25700 nM
